# “And” between values parts separate entries of the source, which are not always exact repeats. Equal entries are not always repeated. Where two headings read alike, the source gives them in different places. Marks after values point to notes of the source that are not given here.
# Key:
# rainbow trout = assay: In vivo bioconcentration experiment with a mixture of anionic surfactants, flow-through aquaria, 10 °C, pH 7.8; settings: for Log BCF: determined with measured concentrations in water; for Concentration in fish: individual fish; for diffusion coefficient (D) in the epithelial membrane of the gills: in vivo; for BCF (kinetic): kinetic BCF from measured concentrations in water
# Experimental: The bioconcentration of a mixture of 10 anionic surfactants was measured in rainbow trout in water at pH 7.8. […] The experiment was conducted in flow-through aquaria with juvenile rainbow trout at 10 °C. Ethical approval for the experiments was obtained from Stockholms […] (decision 9967-2017). The fish, fish housing, fish handling, and procedure for introducing the mixture of […] chemicals were very similar to our previous study with cationic surfactants;[5] details are provided in Text S1. The experiment consisted of a 4-day exposure phase and a 7-day depuration phase. […] Water samples were collected and fish were sacrificed according to the schedule in Table S4. The water samples were collected just prior to the daily removal of feces from the aquarium. Triplicate samples were taken at each time point. […] The water/methanol mixture was analyzed using liquid chromatography-mass spectrometry (LC-MS)/MS as described below for fish. At each fish sampling, five fish were sacrificed. Following stunning and severance of the spinal cord, the whole fish were placed in a polyethylene bag, weighed, and immediately frozen at -20 °C. The weight of the individual fish at sacrifice was 24.0 ± 5.6 g. Three of the five fish from each time point were prioritized for analysis based on proximity to the median fish weight. Each fish was […] homogenized with an Ultra-turrax dispersing device. […] This mixture was homogenized in a bullet blender for 5 min and then placed in an ultrasound bath at 45 °C for 15 min. Following centrifugation for 15 min@3200 RCF, the supernatant was decanted and the extraction was repeated. The extracts were combined. For instrumental analysis, 5 μL of the fish extract or 60 μL of the water/methanol mixture (water samples) was separated on an Acquity UPLC BEH C18 column fitted with a BEH C18 pre-column and analyzed on a TSQ Quantiva triple quadrupole mass spectrometer. The mobile phase was methanol (10 mM ammonium acetate) and Milli-Q-filtered water (10 mM ammonium acetate) (see Table S5 for the liquid chromatography program). To avoid detergent blank peaks originating from cleaning mobile phase bottles, the methanol was prepared directly in the solvent bottle as delivered and Milli-Q was tapped into an empty methanol bottle. Furthermore, a guard column was fitted between the mobile phase and the autosampler to prevent background contamination from disturbing the analysis. All analytes were quantified against the BEHP internal standard, as it gave better reproducibility. […] The central goal of the analysis was to estimate kU and kT as well as the BCF (=kU/kT) from measurements of surfactant concentration in fish and water samples collected at different time points of the experiment. For the fish, only those time points were included for which CF(measured) was above the limit of quantitation (LOQ) in all three fish (data below the LOQ will have a positive bias; including them would result in a negative bias in kT). In this analysis, there exist two sources of uncertainty: first, uncertainty in the actual concentration in water CW at the time of sample collection and second, variability in the concentration in fish around the (expected) surfactant concentrations in fish assumed to follow model (1). We therefore set up a model in which we considered uncertainty in both water and fish measurements simultaneously by assuming a parametric model for the surfactant concentration in the water over time (either linear or quadratic) and accounted for the uncertainty in the corresponding parameters of the water model during the estimation of kU and kT. This was done in a joint Bayesian model that we estimated via Hamiltonian Monte Carlo. […]
# [1] = Baseline screening BCF (0.0125 DMLW, equilibrium partitioning, no biotransformation); settings: for Log baseline BCF: determined as 0.0125 DMLW
# From the text: Recently, the concept of a baseline screening BCF was introduced for surfactants, based on equilibrium partitioning assuming no biotransformation.[19] The baseline screening BCF for the study chemicals exceeded the measured BCF by 1–2.5 orders of magnitude (Table S16), providing further evidence that biotransformation is an important factor influencing the elimination—and thereby the BCF—of the anionic surfactants studied here in rainbow trout. The deviation of PFOA and PFOS from the regression between BCF and DMLW (Figure 1, upper panel) is attributable to them not being biotransformed.
# Table S16: Comparison of the BCF (determined with the measured concentrations in water) and the baseline screening BCF (determined as 0.0125 DMLWa)
# CHEMICAL Log BCF Log baseline BCF Log difference […]
# a Droge, S. T. J.; Scherpenisse, P.; Arnot, J. A.; Armitage, J. M.; McLachlan, M. S.; Nichols, J.; von der Ohe, P.; Bonnell, M.; Hodges, G. Screening the baseline fish bioconcentration potential of various types of surfactants using phospholipid binding data. Environ. Sci.: Processes Impacts
# [2] = cited from earlier work; for log DMW, membrane-water distribution ratio: marked * = measured, used for IVIVE, same values as Table 3
# [3] = determined using nominal concentrations in water
# [4] = from measured concentrations in water, Bayesian estimate, 95% credible interval in brackets
# [5] = 95% credible interval in brackets
# [6] = measured concentrations in water, simpler estimation method (Text S3), 95% confidence intervals in brackets
BCF (rainbow trout; [3]) [L kg-1 ww],Elimination rate constant kT (rainbow trout; [3]) [h⁻¹],Uptake rate constant kU (rainbow trout; [3]) [L/kg/h],Log BCF (rainbow trout) [L kg-1 ww],Compound,"Concentration in fish (rainbow trout; elimination phase, 97 h)","Concentration in fish (rainbow trout; elimination phase, 98 h)","Concentration in fish (rainbow trout; elimination phase, 100 h)","Concentration in fish (rainbow trout; elimination phase, 103 h)","Concentration in fish (rainbow trout; elimination phase, 120 h)","Concentration in fish (rainbow trout; elimination phase, 128 h)","Concentration in fish (rainbow trout; elimination phase, 144 h)","Concentration in fish (rainbow trout; elimination phase, 168 h)","Concentration in fish (rainbow trout; elimination phase, 192 h)","Concentration in fish (rainbow trout; elimination phase, 264 h)","Concentration in fish (rainbow trout; exposure phase, 1 h)","Concentration in fish (rainbow trout; exposure phase, 2 h)","Concentration in fish (rainbow trout; exposure phase, 3 h)","Concentration in fish (rainbow trout; exposure phase, 4 h)","Concentration in fish (rainbow trout; exposure phase, 6 h)","Concentration in fish (rainbow trout; exposure phase, 24 h)",also measured
1.42,0.114,0.162,-0.05,"CCCCCCCCCCCCOCCOCCOCCOCCOS(=O)(=O)O [C12-EO4-SO4, dodecyltetraethoxysulfate]",35 ng g-1 ww and 26 ng g-1 ww and 27 ng g-1 ww,17.6 ng g-1 ww and 19.9 ng g-1 ww and 15.8 ng g-1 ww,35.9 ng g-1 ww and 14.4 ng g-1 ww and 21 ng g-1 ww,11.6 ng g-1 ww and 16.1 ng g-1 ww and 15.1 ng g-1 ww,7.0 ng g-1 ww and 8.6 ng g-1 ww and 3.1 ng g-1 ww,5.5 ng g-1 ww and 7.5 ng g-1 ww and 4.5 ng g-1 ww,4.7 ng g-1 ww and 5.3 ng g-1 ww and 4.5 ng g-1 ww,4.1 ng g-1 ww and 2.7 ng g-1 ww and 1.8 ng g-1 ww,1.6 ng g-1 ww and 3.6 ng g-1 ww and 1.8 ng g-1 ww,3.3 ng g-1 ww and 2.4 ng g-1 ww and 1.5 ng g-1 ww,4.3 ng g-1 ww and 6.7 ng g-1 ww and 6.6 ng g-1 ww,6.7 ng g-1 ww and 8.9 ng g-1 ww and 6.4 ng g-1 ww,12.1 ng g-1 ww and 10.4 ng g-1 ww and 10.6 ng g-1 ww,14.5 ng g-1 ww and 16.2 ng g-1 ww and 14.2 ng g-1 ww,23 ng g-1 ww and 18.6 ng g-1 ww and 13.5 ng g-1 ww,24 ng g-1 ww and 34 ng g-1 ww and 23 ng g-1 ww,"Concentration in fish (rainbow trout; exposure phase, 48 h): 26 ng g-1 ww and 33 ng g-1 ww and 38 ng g-1 ww; Concentration in fish (rainbow trout; exposure phase, 72 h): 30 ng g-1 ww and 39 ng g-1 ww and 35 ng g-1 ww; Concentration in fish (rainbow trout; exposure phase, 96 h): 45 ng g-1 ww and 27 ng g-1 ww and 42 ng g-1 ww; Elimination rate constant kT (rainbow trout; [4]): 0.100 (0.083–0.120) h^–1; Uptake rate constant kU (rainbow trout; [4]): 0.090 (0.074–0.109) L kg^–1 ww h^–1; diffusion coefficient (D) in the epithelial membrane of the gills (rainbow trout): 2.0 × 10^–8 m h^–1; BCF (kinetic) (rainbow trout; [5]): 0.89 (0.80–1.01) L kg^–1 ww; BCF (rainbow trout; [6]): 0.92 (29) L kg-1 ww; Elimination rate constant kT (rainbow trout; [6]): 0.098 (26) h-1; Uptake rate constant kU (rainbow trout; [6]): 0.090 (12) L kg-1 ww h-1; Log difference (baseline BCF vs BCF) [1]: 2.38 L kg-1 ww; Log baseline BCF [1]: 2.34 L kg-1 ww; log DMW, membrane-water distribution ratio [2]: 4.24; log DMLW ([2]; measurement from Droge et al.): 4.24 ^f L kg^–1"
3.9,0.065,0.25,0.65,"CCCCCCCCCCCCCS(=O)(=O)O [C13SO3, tridecylsulfonate]",15.7 ng g-1 ww and 14.6 ng g-1 ww and 19.2 ng g-1 ww,14.6 ng g-1 ww and 12.4 ng g-1 ww and 14.8 ng g-1 ww,33 ng g-1 ww and 10.3 ng g-1 ww and 12.1 ng g-1 ww,10.0 ng g-1 ww and 23 ng g-1 ww and 11.1 ng g-1 ww,6.4 ng g-1 ww and 4.3 ng g-1 ww and 2.9 ng g-1 ww,2.8 ng g-1 ww and 2.3 ng g-1 ww and 4.9 ng g-1 ww,1.63 ng g-1 ww and 1.18 ng g-1 ww and 1.59 ng g-1 ww,0.83 ng g-1 ww and 1.89 ng g-1 ww and 0.64 ng g-1 ww,0.40 ng g-1 ww and 0.33 ng g-1 ww and 0.60 ng g-1 ww,0.30 ng g-1 ww and 0.13 ng g-1 ww and 0.02 ng g-1 ww,15.3 ng g-1 ww and 2.5 ng g-1 ww and 35 ng g-1 ww,3.2 ng g-1 ww and 3.0 ng g-1 ww and 2.3 ng g-1 ww,4.7 ng g-1 ww and 5.8 ng g-1 ww and 4.5 ng g-1 ww,8.1 ng g-1 ww and 54 ng g-1 ww and 202 ng g-1 ww,10.5 ng g-1 ww and 10.3 ng g-1 ww and 8.5 ng g-1 ww,24 ng g-1 ww and 21 ng g-1 ww and 17.0 ng g-1 ww,"Concentration in fish (rainbow trout; exposure phase, 48 h): 19.4 ng g-1 ww and 20 ng g-1 ww and 17.1 ng g-1 ww; Concentration in fish (rainbow trout; exposure phase, 72 h): 30 ng g-1 ww and 16.7 ng g-1 ww and 15.0 ng g-1 ww; Concentration in fish (rainbow trout; exposure phase, 96 h): 22 ng g-1 ww and 19.7 ng g-1 ww and 28 ng g-1 ww; Elimination rate constant kT (rainbow trout; [4]): 0.057 (0.052–0.062) h^–1; Uptake rate constant kU (rainbow trout; [4]): 0.25 (0.22–0.29) L kg^–1 ww h^–1; diffusion coefficient (D) in the epithelial membrane of the gills (rainbow trout): 3.5 × 10^–8 m h^–1; BCF (kinetic) (rainbow trout; [5]): 4.5 (4.1–5.0) L kg^–1 ww; BCF (rainbow trout; [6]): 4.3 (12) L kg-1 ww; Elimination rate constant kT (rainbow trout; [6]): 0.057 (7) h-1; Log difference (baseline BCF vs BCF) [1]: 1.90 L kg-1 ww; Log baseline BCF [1]: 2.56 L kg-1 ww; log DMW, membrane-water distribution ratio [2]: 4.46; log DMLW ([2]; measurement from Droge): 4.46 ^e L kg^–1"
